In ChEMBL document CHEMBL3124929, “Novel S1P(1) receptor agonists--part 3: from thiophenes to pyridines” (J Med Chem, 2014):

How the values were obtained:
[1] = Drug uptake in Wistar rat brain at 10 mg/kg, po after 24 hrs; assay type: ADME, organism-based; design: dose 10 mg/kg, route oral; settings: read-out: Drug uptake
[2] = Plasma concentration in Wistar rat at 10 mg/kg, po after 2 hrs; assay type: ADME, organism-based; design: dose 10 mg/kg, route oral
[3] = Plasma concentration in Wistar rat at 10 mg/kg, po after 24 hrs; assay type: ADME, organism-based; design: dose 10 mg/kg, route oral
[4] = Drug uptake in Wistar rat brain at 10 mg/kg, po after 6 hrs; assay type: ADME, organism-based; design: dose 10 mg/kg, route oral; settings: read-out: Drug uptake
[5] = Plasma concentration in Wistar rat at 10 mg/kg, po after 6 hrs; assay type: ADME, organism-based; design: dose 10 mg/kg, route oral
[6] = Drug uptake in Wistar rat brain at 10 mg/kg, po after 2 hrs; assay type: ADME, organism-based; design: dose 10 mg/kg, route oral; settings: read-out: Drug uptake
[7] = Plasma concentration in Wistar rat at 10 mg/kg, po after 3 hrs; assay type: ADME, organism-based; design: dose 10 mg/kg, route oral
[8] = Oral bioavailability in cynomolgus monkey at 1 mg/kg by LC-MS/MS analysis; assay type: ADME, organism-based, Macaca fascicularis; settings: in vivo
[9] = Cmax in Beagle dog at 3 mg/kg, po by LC-MS/MS analysis; assay type: ADME, organism-based, Canis lupus familiaris; design: dose 3 mg/kg, route oral; settings: in vivo
[10] = Tmax in cynomolgus monkey at 1 mg/kg, po by LC-MS/MS analysis; assay type: ADME, organism-based, Macaca fascicularis; design: dose 1 mg/kg, route oral; settings: in vivo
[11] = AUC (0 to 24 hrs) in Beagle dog at 3 mg/kg, po by LC-MS/MS analysis; assay type: ADME, organism-based, Canis lupus familiaris; design: time < 24 hr, dose 3 mg/kg, route oral; settings: plasma
[12] = Tmax in Wistar rat plasma at 10 mg/kg, po; assay type: ADME, organism-based; design: dose 10 mg/kg, route oral
[13] = Oral bioavailability in Beagle dog at 3 mg/kg by LC-MS/MS analysis; assay type: ADME, organism-based, Canis lupus familiaris; settings: in vivo
[14] = AUC (0 to 24 hrs) in cynomolgus monkey at 1 mg/kg, po by LC-MS/MS analysis; assay type: ADME, organism-based, Macaca fascicularis; design: time < 24 hr, dose 1 mg/kg, route oral; settings: plasma
[15] = Volume of distribution at steady state in Beagle dog at 1 mg/kg, iv by LC-MS/MS analysis; assay type: ADME, organism-based, Canis lupus familiaris; design: dose 1 mg/kg, route intravenous; settings: in vivo, read-out: Vdss
[16] = Cmax in Wistar rat at 10 mg/kg, po by LC-MS/MS analysis; assay type: ADME, organism-based; design: dose 10 mg/kg, route oral; settings: in vivo
[17] = Volume of distribution at steady state in cynomolgus monkey at 1 mg/kg, iv by LC-MS/MS analysis; assay type: ADME, organism-based, Macaca fascicularis; design: dose 1 mg/kg, route intravenous; settings: in vivo, read-out: Vdss
[18] = AUC (0 to infinity) in cynomolgus monkey at 1 mg/kg, iv by LC-MS/MS analysis; assay type: ADME, organism-based, Macaca fascicularis; design: time infinity, dose 1 mg/kg, route intravenous; settings: plasma
[19] = Oral bioavailability in Wistar rat at 10 mg/kg by LC-MS/MS analysis; assay type: ADME, organism-based; settings: in vivo
[20] = Tmax in Beagle dog at 3 mg/kg, po by LC-MS/MS analysis; assay type: ADME, organism-based, Canis lupus familiaris; design: dose 3 mg/kg, route oral; settings: in vivo
[21] = Volume of distribution at steady state in Wistar rat at 1 mg/kg, iv by LC-MS/MS analysis; assay type: ADME, organism-based; design: dose 1 mg/kg, route intravenous; settings: in vivo, read-out: Vdss
[22] = Cmax in cynomolgus monkey at 1 mg/kg, po by LC-MS/MS analysis; assay type: ADME, organism-based, Macaca fascicularis; design: dose 1 mg/kg, route oral; settings: in vivo
[23] = AUC (0 to infinity) in Wistar rat at 1 mg/kg, iv by LC-MS/MS analysis; assay type: ADME, organism-based; design: time infinity, dose 1 mg/kg, route intravenous; settings: plasma
[24] = AUC (0 to 32 hrs) in Wistar rat at 10 mg/kg, po by LC-MS/MS analysis; assay type: ADME, organism-based; design: time < 32 hr, dose 10 mg/kg, route oral; settings: plasma
[25] = Tmax in Wistar rat at 10 mg/kg, po by LC-MS/MS analysis; assay type: ADME, organism-based; design: dose 10 mg/kg, route oral; settings: in vivo
[26] = Tmax in Wistar rat brain at 10 mg/kg, po; assay type: ADME, organism-based; design: dose 10 mg/kg, route oral
[27] = AUC (0 to infinity) in Beagle dog at 1 mg/kg, iv by LC-MS/MS analysis; assay type: ADME, organism-based, Canis lupus familiaris; design: time infinity, dose 1 mg/kg, route intravenous; settings: plasma
[28] = AUC (0 to 24 hrs) in Wistar rat at 1 mg/kg, po by LC-MS/MS analysis; assay type: ADME, organism-based; design: time < 24 hr, dose 1 mg/kg, route oral; settings: plasma
[29] = Tmax in Wistar rat at 1 mg/kg, po by LC-MS/MS analysis; assay type: ADME, organism-based; design: dose 1 mg/kg, route oral; settings: in vivo
[30] = Volume of distribution at steady state in Wistar rat at 0.5 mg/kg, iv by LC-MS/MS analysis; assay type: ADME, organism-based; design: dose 0.5 mg/kg, route intravenous; settings: in vivo, read-out: Vdss
[31] = AUC (0 to infinity) in Wistar rat at 0.5 mg/kg, iv by LC-MS/MS analysis; assay type: ADME, organism-based; design: time infinity, dose 0.5 mg/kg, route intravenous; settings: plasma
[32] = Oral bioavailability in Wistar rat at 1 mg/kg by LC-MS/MS analysis; assay type: ADME, organism-based; settings: in vivo
[33] = Cmax in Wistar rat at 1 mg/kg, po by LC-MS/MS analysis; assay type: ADME, organism-based; design: dose 1 mg/kg, route oral; settings: in vivo
[34] = AUC (0 to 24 hrs) in Wistar rat at 10 mg/kg, po by LC-MS/MS analysis; assay type: ADME, organism-based; design: time < 24 hr, dose 10 mg/kg, route oral; settings: plasma

Question: For `CCc1cc(-c2nc(-c3cc(C)nc(N(CC)CC)c3)no2)cc(C)c1OC[C@@H](O)CNC(=O)CO`, which concentration at 24 h [1] is on record?
Answer: 301 ng/mL

Question: What about the concentration at 2 h [2] of the same compound?
Answer: 875 ng/mL

Question: What about the concentration at 24 h [3] of the same compound?
Answer: 230 ng/mL

Question: What about the concentration at 6 h [4] of the same compound?
Answer: 369 ng/mL

Question: And the concentration at 6 h [5]?
Answer: 918 ng/mL

Question: What about the concentration at 2 h [6] of the same compound?
Answer: 140 ng/mL

Question: What does the source list for `CCc1cc(-c2noc(-c3cc(C)c(C4CCCC4)cn3)n2)cc(C)c1OC[C@@H](O)CNC(=O)CO`?
Answer: concentration at 3 h [7]: 4910 nM; concentration at 24 h [3]: 800 nM; concentration at 6 h [5]: 3690 nM

Question: For `CCc1cc(-c2noc(-c3cc(C)nc(N(CC)CC)c3)n2)cc(C)c1OC[C@@H](O)CO`, which concentration at 24 h [1] is on record?
Answer: 34 ng/mL

Question: What about the concentration at 2 h [2] of the same compound?
Answer: 608 ng/mL

Question: And the concentration at 24 h [3]?
Answer: 22 ng/mL

Question: What about the concentration at 6 h [4] of the same compound?
Answer: 271 ng/mL

Question: What about the concentration at 6 h [5] of the same compound?
Answer: 254 ng/mL

Question: What about the concentration at 2 h [6] of the same compound?
Answer: 435 ng/mL

Question: With `CCc1cc(-c2noc(-c3cc(C)nc(N(CC)CC)c3)n2)cc(C)c1OC[C@@H](O)CNC(=O)CO` as the compound, how does the bioavailability [8] read?
Answer: 16%

Question: What about the Cmax [9] of the same compound?
Answer: 546 ng/mL

Question: And the Tmax [10]?
Answer: 2 h

Question: And the AUC(0-t) at 24 h [11]?
Answer: 3250 ng·h/mL

Question: What about the Tmax [12] of the same compound?
Answer: 2 h

Question: What about the bioavailability [13] of the same compound?
Answer: 32%

Question: What about the concentration at 24 h [1] of the same compound?
Answer: 487 ng/mL

Question: And the AUC(0-t) at 24 h [14]?
Answer: 866 ng·h/mL

Question: What about the Vd [15] of the same compound?
Answer: 1.2 L/kg

Question: What about the Cmax [16] of the same compound?
Answer: 1090 ng/mL

Question: And the Vd [17]?
Answer: 1.1 L/kg

Question: What about the AUC(0-inf) [18] of the same compound?
Answer: 5450 ng·h/mL

Question: What about the bioavailability [19] of the same compound?
Answer: 52%

Question: And the Tmax [20]?
Answer: 1 h

Question: What about the Vd [21] of the same compound?
Answer: 3.5 L/kg

Question: And the concentration at 2 h [2]?
Answer: 2170 ng/mL

Question: And the concentration at 24 h [3]?
Answer: 412 ng/mL

Question: What about the concentration at 6 h [4] of the same compound?
Answer: 653 ng/mL

Question: And the concentration at 6 h [5]?
Answer: 1780 ng/mL

Question: What about the Cmax [22] of the same compound?
Answer: 97 ng/mL

Question: What about the AUC(0-inf) [23] of the same compound?
Answer: 3200 ng·h/mL

Question: And the AUC(0-t) at 32 h [24]?
Answer: 16500 ng·h/mL

Question: What about the Tmax [25] of the same compound?
Answer: 2 h

Question: What about the Tmax [26] of the same compound?
Answer: 6 h

Question: What about the concentration at 2 h [6] of the same compound?
Answer: 269 ng/mL

Question: What about the AUC(0-inf) [27] of the same compound?
Answer: 3350 ng·h/mL

Question: Which results are given for `CCc1cc(-c2nnc(-c3cc(C)nc(N(CC)CC)c3)o2)cc(C)c1OC[C@@H](O)CNC(=O)CO`?
Answer: concentration at 24 h [1]: 3 ng/mL; concentration at 2 h [2]: 815 ng/mL; concentration at 24 h [3]: 8 ng/mL; concentration at 6 h [4]: 52 ng/mL; concentration at 6 h [5]: 510 ng/mL; concentration at 2 h [6]: 46 ng/mL

Question: What does the source list for `CCc1cc(-c2nnc(-c3cc(C)nc(N(CC)CC)c3)o2)cc(C)c1OC[C@@H](O)CO`?
Answer: concentration at 24 h [1]: 2 ng/mL; concentration at 2 h [2]: 820 ng/mL; concentration at 24 h [3]: 4 ng/mL; concentration at 6 h [4]: 215 ng/mL; concentration at 6 h [5]: 315 ng/mL; concentration at 2 h [6]: 600 ng/mL

Question: Which results are given for `CCc1cc(-c2noc(-c3cc(C4CCCC4)cc(C)n3)n2)cc(C)c1OC[C@@H](O)CNC(=O)CO`?
Answer: concentration at 3 h [7]: 1890 nM; concentration at 24 h [3]: 9 nM; concentration at 6 h [5]: 1070 nM

Question: For `CCc1cc(-c2noc(-c3cc(C)nc(C4CCCC4)c3)n2)cc(C)c1OC[C@@H](O)CNC(=O)CO`, which AUC(0-t) at 24 h [28] is on record?
Answer: 436 ng·h/mL

Question: And the Tmax [29]?
Answer: 3 h

Question: And the Vd [30]?
Answer: 7.3 L/kg

Question: And the AUC(0-inf) [31]?
Answer: 566 ng·h/mL

Question: What about the bioavailability [32] of the same compound?
Answer: 39%

Question: What about the Cmax [33] of the same compound?
Answer: 49 ng/mL

Question: With `CCc1cc(-c2noc(-c3cc(C)nc(C(CC)CC)c3)n2)cc(C)c1OC[C@@H](O)CNC(=O)CO` as the compound, how does the Vd [30] read?
Answer: 3.4 L/kg

Question: And the Cmax [16]?
Answer: 804 ng/mL

Question: What about the AUC(0-inf) [31] of the same compound?
Answer: 69.9 ng·h/mL

Question: And the bioavailability [19]?
Answer: 126%

Question: What about the AUC(0-t) at 24 h [34] of the same compound?
Answer: 1760 ng·h/mL

Question: And the Tmax [25]?
Answer: 0.5 h
